# Assay results reported in patent US20250032581A1, “COMPOSITIONS AND ARTICLES COMPRISING AN ADNF POLYPEPTIDE” (RAMOT AT TEL-AVIV UNIVERSITY LTD., priority 2021, published 2025).
# Key:
# [1] = test system: differentiated N1E-115 cells expressing RFP-tagged EB3; experiment: Live imaging of EB3 comet-like structures (MT dynamics); assay type: cell-based, mouse
# Source text: Plasmid construction—Protein expressing plasmids were constructed as previously described based on pEGFP-C1 backbone and express full-length ADNP or the following truncated ADNP proteins: p.Glu830synfs*83, p.Lys408Valfs*31, p.Ser404* (as before). Inserts of cDNA carrying unique mutations were obtained from mRNA extracted from patient-derived lymphoblastoid cell lines and cDNA with full-length human ADNP was obtained from a control lymphoblastoid cell line with no mutation. Protein expressions were verified by fluorescent imaging and immunoblotting analysis as before.
# Cell culture—Mouse neuroblastoma NIE-115 cells were maintained in Dulbecco's modified Eagle's medium, 10% fetal bovine serum, 2 mM glutamine and 100 U ml-1 penicillin, 100 mg ml-1 streptomycin (Biological Industries, Beit Haemek, Israel). The cells were incubated in 9 5% air/5% CO2 in a humidified incubator at 37° C.
# Cell differentiation and co-transfection of overexpression plasmids—Cultured NIE-115 cells were plated on 35 mm dishes (81156, 60 p-Dish, Ibidi, Martinsried, Germany) at a concentration of 1.25×10^4 cells per dish and then were differentiated with reduced fetal bovine serum (2%) and DMSO (1.25%) containing medium for 5 days before transfection. 48 hrs before experiments N1E-115 cells were co-transfected with 1 μg EB3-RFP or mCherry-Tau (3R) plasmid with or without 2 μg of plasmids, coding to GFP conjugated to full-length human ADNP, or ADNP carried mutations. 1:3 ratios between total amount of transfected DNA and transfection reagent were used according to manufacture guidance (Lipofectamine2000, Thermo Fisher Scientific, Waltham, MA, USA) in all subsequent experiments.
# Live Imaging—48 hrs after transfection, differentiated NIE-115 cells (expressing EB3-RFP with or without GFP-conjugated to full-length ADNP or mutated ADNP) were incubated at 37° C. with a 5% CO2/95% air mixture in a thermostatic chamber placed on the stage of a Leica TCS SP5 confocal microscope (objective 100× (PL Apo) oil immersion, NA 1.4). Time-lapse images were automatically captured 3 sec during 1 min, using the Leica LAS AF software. After imaging all samples were also treated with NAP (SEQ ID NO: 2) or SKIP (SEQ ID NO: 21) in final concentrations of 10^−12M, and after 4 hrs time-lapse imaging was done again under the same conditions. Data was collected and analyzed by Imaris software.
# To evaluate the effect of ADNP truncated proteins on MT dynamics time-lapse imaging of EB3 comet-like structures formed by RFP-tagged EB3 proteins that bind to MT plus-ends was performed. Two parameters of EB3 activity were used to assess MT dynamics—track length and track speed of EB3 comets, which reflect the length of freshly growing MTs and the speed of MT assembly, respectively. Furthermore, the present inventors aimed to determine whether NAP ([…] for 4 hrs) could prevent the deleterious effect of ADNP mutations.
# [2] = test system: Shank3-Adnp-actin interactions; experiment: Actin co-immunoprecipitations from mouse brain extracts
# Source text: De novo heterozygous mutations in ADNP reproduced the autistic ADNP syndrome. ADNP mutations impair microtubule (MT) function, essential for synaptic activity. The ADNP MT-associating fragment NAPVSIPQ (NAP) (SEQ ID NO 2) contains an MT end-binding protein interacting domain, SxIP (mimicking the active-peptide, SKIP, SEQ ID NO 21). The inventors hypothesized that not all ADNP mutations are similarly deleterious and that the NAPV portion of NAPVSIPQ is biologically active. Using the eukaryotic linear motif (ELM) resource, the inventors identified a Src homology 3 (SH3) domain-ligand association site in NAP responsible for controlling signaling pathways regulating the cytoskeleton, namely NAPVSIP (SEQ ID NO: 2). Altogether, the inventors mapped multiple SH3-binding sites in ADNP. […] Site-directed-mutagenesis, abolishing the p.Lys408Valfs*31 SH3-binding motif, produced MT toxicity. […] Lastly, SH3 and multiple ankyrin repeat domains protein 3 (SHANK3), a major autism gene product, interact with the cytoskeleton through an actin-binding motif to modify behavior.
structure (smiles),measurement,setting,value
"CC[C@H](C)[C@H](NC(=O)[C@H](CO)NC(=O)[C@@H](NC(=O)[C@@H]1CCCN1C(=O)[C@H](C)NC(=O)[C@@H](N)CC(N)=O)C(C)C)C(=O)N1CCC[C@H]1C(=O)N[C@@H](CCC(N)=O)C(=O)O [NAP, NAPVSIPQ]",EB3 track length and speed,"[1]; 10^−12M, 4 hrs, vs. non-treated control, no significant differences between NAP and SKIP",increased EB3 track length and speed
same,EB3 comet speed and track length,"[1]; cells expressing ADNP p.Glu830synfs*83, NAP 4 hrs",significantly augmented
same,EB3 comet speed and track length,"[1]; cells expressing ADNP p.Ser404*, NAP 4 hrs",significantly augmented
same,EB3 comet track length and speed,"[1]; cells expressing full-length ADNP, NAP 4 hrs",did not further influence the effect of full-length ADNP
same,Shank3-Adnp-actin interactions,[2],NAP-mediated normalization of Shank3-Adnp-actin interactions
